According to article PMC6803640, “Oligomeric state, hydrodynamic properties and target recognition of human Calcium and Integrin Binding protein 2 (CIB2)” (Scientific Reports, 2019):
“And” between values parts separate entries of the source, which are not always exact repeats. Identical values can stand only once. Like-named read-outs stand apart in the source and are kept apart here. Where a SMILES comes first, the peptide text is derived from it.

T1: human CIB2 (Homo sapiens, UniProt O75838)
T1 construct: made in house
T1 sequence (O75838 1-187): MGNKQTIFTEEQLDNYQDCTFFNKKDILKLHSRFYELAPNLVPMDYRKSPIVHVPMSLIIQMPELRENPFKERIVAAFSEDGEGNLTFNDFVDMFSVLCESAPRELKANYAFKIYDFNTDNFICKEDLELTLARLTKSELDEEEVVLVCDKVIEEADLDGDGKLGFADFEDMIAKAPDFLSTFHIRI


Columns and labels:
[1] = target: T1, human CIB2; test: SPR interaction of α7B peptides with immobilized CIB2; format: binding; settings: for ka2 association rate constant, CIB2-α7B_M-CIB2 complex / koff / Kd: His-CIB2; for ka2 association rate constant, CIB2-α7B_M-CIB2 complex / kon / koff: average ± SEM; for kon: His-CIB2 on His-cap chip, peptide 230 nM–30 μM, read-out: ka1 association rate constant, CIB2-α7B_M complex; for Kd: ratio kd1/ka1, read-out: KD^app1 apparent affinity for the first binding event
Description: SPR was also used to study quantitatively the interaction of CIB2 with one of its established targets, namely the cytoplasmic domain of integrin α7B[3],[7]. Three different peptides were used in the interaction experiments. A peptide corresponding to the membrane proximal segment of the cytoplasmic domain of α7B integrin (α7B_M), another peptide with the same amino acid content, but randomized sequence (α7B_Scrb) and a peptide covering the C-terminal region of the cytoplasmic domain of α7B integrin (α7B_C). Three different approaches were used. In a first approach, His-tagged CIB2 was initially coupled to the surface of a His-cap sensor chip (see Methods), thus ensuring homogeneous site-specific orientation, and then blocked via standard amine coupling. […] The minor differences in the spectra at the level of the phenylalanine band can be ascribed to the TEV-protease recognition site (ENLYFQ), uncleaved in the His-tagged protein. […] In a third approach, we used the same low levels of CIB2 immobilization via amine coupling described in the experiments to probe CIB2 dimerization (100–200 RU) and flowed the three peptides.
The second approach (direct peptide immobilization) led to very low signals and unreproducible results and was not pursued any further. […] In spite of such differences, which might reflect both the heterogeneity of the surface and the different chemistry of immobilization, interaction results were consistent with one another. […] It should be noted that both Huang et al.[7] and Häger et al.[3] used peptides from mouse integrin, while we used the corresponding human sequences, which in the case of α7B_C lacks the tryptophan residue present in the mouse sequence. It is not uncommon that fluorescence spectroscopy interaction studies based on the peptide intrinsic fluorescence (CIB2 has no tryptophan residue) reveal some non-specific binding, especially when a highly hydrophobic protein such as CIB2 is the ligand. […] It cannot be excluded that a similar phenomenon occurred for murine α7B_C in the work by Häger et al.[3]. Our present results, based on accurate, label-free interaction studies clearly identify the region covered by α7B_M as the preferential binding site of CIB2 with α7B integrin.
SPR titrations of α7B_M over homogeneously coupled CIB2 (approach 1) gave very reproducible results and were performed both in the presence of 1 mM Mg^2+ and in the co-presence of 1 mM Mg^2+ and 2 mM Ca^2+. Peptide concentration was varied in the 230 nM–30 μM range. As anticipated, sensorgrams could not fit to a 1:1 binding model, and the kinetic model that better fit the data was a bivalent analyte model (see Methods), in which one α7B_M peptide could bind to two CIB2 molecules. According to this scheme, binding of the peptide to the first CIB2 molecule would direct the binding to the second one, thus resulting in two sets of kinetic constants.
Details of the protein and peptide immobilization procedures and experimental settings are elucidated in the Supplementary Information.
Kinetic data were fitted according to a bivalent analyte model, were a CIB2 monomer (L) can bind an α7B_M peptide (A), and the resulting complex (AL) can bind to a second CIB2 molecule (AL2), with all processes being possibly reversible, as follows: A+L→ka1ALAL→kd1A+LAL+L→ka2AL2AL2→kd2AL+L […]

[2] = Native ESI-MS oligomeric state of CIB2; format: physicochemical; settings: 14 µM CIB2 in 200 mM ammonium acetate, pH 6.8; collision energy 60 V
Method: For native ESI-MS analyses (High-Mass Q-TOF II mass spectrometer, Waters/MSVision), CIB2 was prepared in 200 mM ammonium acetate, pH 6.8.

[3] = cited from earlier work
Description: Moreover, DLS experiments performed with the samples collected immediately after elution from the SEC column measured a relatively high hydrodynamic diameter (d^Mg = 8.43 nm and d^Ca = 8.18 nm), which was also interpreted as an evidence of a dimeric protein[8]. […] This shoulder (here denominated A1) was collected together with the main peak (A2) in our previous work[8]. In contrast, the two fractions were separately collected and analyzed in the present study.

Molecule	SPR interaction with CIB2 ([1]; His-CIB2 capture (7.5 µM peptide, or 230 nM–30 μM) and amine-coupled untagged CIB2 (7.5–30 µM), 1 mM Mg^2+, 2 mM Ca^2+, experiments repeated 4 times)	first-event affinity in Mg^2+ + Ca^2+ compared to Mg^2+ alone ([1]; KD^app1)	faster dissociation of the second CIB2 molecule in co-presence of Mg^2+ and Ca^2+ ([1]; Mg^2+ + Ca^2+ vs Mg^2+) [times]	affinity for CIB2 ([1]; SPR)	ka2 association rate constant, CIB2-α7B_M-CIB2 complex ([1]; bivalent analyte model, 1 mM Mg^2+ 2 mM Ca^2+, pH 7.5, N = 15)	ka2 association rate constant, CIB2-α7B_M-CIB2 complex ([1]; bivalent analyte model, 1 mM Mg^2+, 230 nM–30 μM, pH 7.5, N = 16)	kon ([1]; bivalent analyte model, 1 mM Mg^2+, 20 mM HEPES pH 7.5, 150 mM KCl, 1 mM DTT, 50 µM EDTA, 0.005% Tween, N = 16) [M⁻¹ s⁻¹]	association of first CIB2 faster in sole Mg^2+ vs co-presence of Ca^2+ (fold) ([1]; first binding event, Mg^2+ vs Mg^2+ + Ca^2+)	dissociation from CIB2 ([1]; followed for 240 s, flow rate 20 μl min−1)	koff ([1]; pH 7.5, bivalent analyte model, 1 mM Mg^2+ 2 mM Ca^2+, pH 7.5, N = 15, read-out: kd1 dissociation rate constant, CIB2-α7B_M complex) [s⁻¹]	koff ([1]; pH 7.5, bivalent analyte model, 1 mM Mg^2+ 2 mM Ca^2+, pH 7.5, N = 15, read-out: kd2 dissociation rate constant, CIB2-α7B_M-CIB2 complex) [s⁻¹]	koff ([1]; pH 7.5, bivalent analyte model, 1 mM Mg^2+, 230 nM–30 μM, pH 7.5, N = 16, read-out: kd1 dissociation rate constant, CIB2-α7B_M complex) [s⁻¹]	koff ([1]; pH 7.5, bivalent analyte model, 1 mM Mg^2+, 230 nM–30 μM, pH 7.5, N = 16, read-out: kd2 dissociation rate constant, CIB2-α7B_M-CIB2 complex) [s⁻¹]	kon ([1]; pH 7.5, bivalent analyte model, 1 mM Mg^2+ 2 mM Ca^2+, pH 7.5, N = 15) [M⁻¹ s⁻¹]	Kd ([1]; 1 mM Mg^2+ 2 mM Ca^2+, pH 7.5, N = 15) [µM]	Kd ([1]; 1 mM Mg^2+, pH 7.5, N = 16) [µM]	association of second CIB2 faster in sole Mg^2+ vs co-presence of Ca^2+ (fold) ([1]; second binding event, Mg^2+ vs Mg^2+ + Ca^2+)	oligomeric state, native MS [2]	hydrodynamic diameter d^Ca ([3]; Ca^2+, collected immediately after SEC) [nm]	hydrodynamic diameter d^Mg ([3]; Mg^2+, A1 and A2 collected in one sample)
CSCC[C@H](NC(=O)[C@H](CCCCN)NC(=O)[C@H](Cc1c[nH]c2ccccc12)NC(=O)[C@H](CC(C)C)NC(=O)[C@H](CC(C)C)NC(=O)[C@H](CC(C)C)NC(C)=O)C(=O)NCC(=O)N[C@@H](Cc1ccccc1)C(=O)N[C@@H](Cc1ccccc1)C(=O)N[C@@H](CCCCN)C(=O)N[C@@H](CCCNC(=N)N)C(=O)N[C@@H](C)C(=O)N[C@@H](CCCCN)C(=O)N[C@@H](Cc1c[nH]cn1)C(=O)N1CCC[C@H]1C(=O)N[C@@H](CCC(=O)O)C(N)=O [α7B_M] (Ac-LLLWKMGFFKRAKHPE-NH2)	binds to CIB2 significantly stronger than the control peptide α7B_Scrb	roughly half affinity	2.5	relatively low affinity interaction	(4.2 ± 0.5) × 10^−4 RU^−1s^−1	(1.9 ± 0.4) × 10^−3 RU^−1s^−1	31000	2	complete protein-peptide dissociation	0.4	0.053	0.36	0.02	16000	25 ± 5	11.6 ± 1.8	5	–	–	–
CIB2: Recombinant human CIB2, Ca^2+ and Mg^2+-binding protein (protein, left off: His tag, end not stated, cleaved) MGNKQTIFTEEQLDNYQDCTFFNKKDILKLHSRFYELAPNLVPMDYRKSPIVHVPMSLIIQMPELRENPFKERIVAAFSEDGEGNLTFNDFVDMFSVLCESAPRELKANYAFKIYDFNTDNFICKEDLELTLARLTKSELDEEEVVLVCDKVIEEADLDGDGKLGFADFEDMIAKAPDFLSTFHIRI	–	–	–	–	–	–	–	–	–	–	–	–	–	–	–	–	–	no signals of CIB2 dimers, nor higher order oligomers were detected	8.18	8.43 nm and 8.4 nm
